From patent publication US20260042755A1, “GPR6 INVERSE AGONISTS” (MapLight Therapeutics, Inc., priority 2022, published 2026)

Key:
[1] = molecular target: T1, GPR3 (Homo sapiens, UniProt P46089); assay: GPR3 antagonist functional cAMP assay (LANCE Ultra cAMP TR-FRET, CHO cells stably expressing GPR3); format: cell-based
T1 construct: expressed in transfected cells; host or cells: CHO cells
Procedure, shortened: (§1)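 Read-out was TR-FRET cAMP signal at 665 nm after 1 h at room temperature, following 45 min compound exposure at 37 °C. Assay buffer contained 0.1% BSA and 150 μM Ro 20-1724. Antagonist IC50s were fitted with a 4-parameter logistic against DMSO and reference controls.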

[2] = molecular target: T2, GPR6 (Homo sapiens, UniProt P46095); assay: GPR6 antagonist functional cAMP assay (LANCE Ultra cAMP TR-FRET, CHO cells stably expressing GPR6); format: cell-based
T2 construct: expressed in transfected cells; host or cells: CHO cells
Procedure, shortened: as §1

[3] = CHO cells stably expressing GPR3, cAMP assay
[4] = CHO cells stably expressing GPR6, cAMP assay
[5] = CHO cells stably expressing GPR3, cAMP assay (Example 24)
[6] = CHO cells stably expressing GPR6, cAMP assay (Example 24)
[7] = procedure as described in Example 24

T2 sequence (P46095 whole entry): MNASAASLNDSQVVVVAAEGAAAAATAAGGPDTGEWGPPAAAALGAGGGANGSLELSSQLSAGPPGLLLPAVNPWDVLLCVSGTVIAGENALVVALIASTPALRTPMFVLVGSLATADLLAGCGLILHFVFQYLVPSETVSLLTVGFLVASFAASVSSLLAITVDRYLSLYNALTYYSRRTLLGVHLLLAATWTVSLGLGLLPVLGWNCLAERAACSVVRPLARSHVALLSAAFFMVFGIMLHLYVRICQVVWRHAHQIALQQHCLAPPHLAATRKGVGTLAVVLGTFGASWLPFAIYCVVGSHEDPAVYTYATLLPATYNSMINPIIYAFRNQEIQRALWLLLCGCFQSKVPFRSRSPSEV
T1 sequence (P46089 whole entry, species assumed): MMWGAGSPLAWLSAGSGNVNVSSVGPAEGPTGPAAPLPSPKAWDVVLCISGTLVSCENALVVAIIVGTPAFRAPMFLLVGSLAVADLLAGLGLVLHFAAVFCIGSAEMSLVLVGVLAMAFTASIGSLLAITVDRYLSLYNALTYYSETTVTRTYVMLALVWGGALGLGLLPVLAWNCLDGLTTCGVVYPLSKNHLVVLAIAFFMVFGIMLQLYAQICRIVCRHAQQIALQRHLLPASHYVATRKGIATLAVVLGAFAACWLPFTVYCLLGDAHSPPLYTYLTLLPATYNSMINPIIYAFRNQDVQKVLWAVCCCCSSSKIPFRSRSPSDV

CC(=O)N1CCc2nc(N3CCC(Oc4ccc(F)cc4F)CC3)c(C3CCN(CC(F)(F)F)CC3)nc2C1 [Compound 496, 1-{2-[4-(2,4-difluorophenoxy)-1-piperidyl]-3-[1-(2,2,2-trifluoroethyl)-4-piperidyl]-5,6,7,8-tetrahydro-1,4,6-triaza-6-naphthyl}-1-ethanone]
IC50 [1, 3]: 1 to 30 µM
IC50 [2, 4]: 1 to 30 µM

CCn1cc(-c2nc3c(nc2N2CCC(Oc4ccc(F)cc4F)CC2)CCN(C(C)=O)C3)cn1 [Compound 220, 1-{2-[4-(2,4-difluorophenoxy)piperidin-1-yl]-3-(1-ethyl-1H-pyrazol-4-yl)-5H,6H,7H,8H-pyrido[3,4-b]pyrazin-6-yl}ethan-1-one]
IC50 [1, 5]: 1 to 30 µM
IC50 [2, 6]: < 0.1 µM

Nc1cc2nc(N3CCC(Oc4ccc(F)cc4F)CC3)c(-c3cnn(C4CC4)c3)nc2cn1 [Compound 462, 3-(1-cyclopropyl-1H-pyrazol-4-yl)-2-[4-(2,4-difluorophenoxy)piperidin-1-yl]pyrido[3,4-b]pyrazin-7-amine]
IC50 [1, 5]: 1 to 30 µM
IC50 [2, 6]: 0.1 to 1 µM

COC(C)(C)C(=O)N1CCc2nc(N3CCC(Oc4ccc(F)cc4F)CC3)c(-c3cn[nH]c3)nc2C1 [Compound 174, 1-{2-[4-(2,4-difluorophenoxy)piperidin-1-yl]-3-(1H-pyrazol-4-yl)-5H,6H,7H,8H-pyrido[3,4-b]pyrazin-6-yl}-2-methoxy-2-methylpropan-1-one]
IC50 [1, 5]: 1 to 30 µM
IC50 [2, 6]: 0.1 to 1 µM

Cn1cc(-c2nc3cnc(Cl)cc3nc2N2CCN(Cc3ccc(F)cc3F)CC2)cn1 [Compound 193, 1-[7-chloro-3-(1-methyl-1H-pyrazol-4-yl)pyrido[3,4-b]pyrazin-2-yl]-4-[(2,4-difluorophenyl)methyl]piperazine]
IC50 [1, 5]: 1 to 30 µM
IC50 [2, 6]: 1 to 30 µM

CCn1cc(-c2nc3c(nc2N2CCN(C(=O)c4ccc(Cl)cc4)CC2)CCN(C(C)=O)C3)cn1 [Compound 549, 1-{2-[4-(p-chlorobenzoyl)-1-piperazinyl]-3-(1-ethyl-4-pyrazolyl)-5,6,7,8-tetrahydro-1,4,6-triaza-6-naphthyl}-1-ethanone]
IC50 [1, 3]: 1 to 30 µM
IC50 [2, 4]: 0.1 to 1 µM

COc1ccc(CN2CCN(c3nc4c(nc3-c3cnn(C)c3)CN(C(C)=O)CC4)CC2)c(F)c1 [Compound 316, 1-(2-{4-[(2-fluoro-4-methoxyphenyl)methyl]piperazin-1-yl}-3-(1-methyl-1H-pyrazol-4-yl)-5H,6H,7H,8H-pyrido[3,4-b]pyrazin-6-yl)ethan-1-one]
IC50 ([1]; procedure of Example 24): 1 to 30 µM
IC50 ([2]; procedure of Example 24): 0.1 to 1 µM

CC(=O)N1CCc2nc(N3CCC(Oc4ccc(F)cc4F)CC3)c(-c3cccc(F)n3)nc2C1 [Compound 57, 1-{2-[4-(2,4-difluorophenoxy)piperidin-1-yl]-3-(6-fluoropyridin-2-yl)-5H,6H,7H,8H-pyrido[3,4-b]pyrazin-6-yl}ethan-1-one]
IC50 [1, 5]: 1 to 30 µM
IC50 [2, 6]: 1 to 30 µM

CCn1cc(-c2nc3c(nc2N2CCC(Oc4ccc(F)cc4F)CC2)CCN(C(=O)C(C)(C)O)C3)cn1 [Compound 276, 1-{2-[4-(2,4-difluorophenoxy)piperidin-1-yl]-3-(1-ethyl-1H-pyrazol-4-yl)-5H,6H,7H,8H-pyrido [3,4-b]pyrazin-6-yl}-2-hydroxy-2-methylpropan-1-one]
IC50 ([1]; procedure of Example 24): 0.1 to 1 µM
IC50 ([2]; procedure of Example 24): < 0.1 µM

CC(=O)N1CCc2nc(N3CCC(Oc4ccc(F)cc4F)CC3)c(-c3cnn(-c4ccccc4)c3)nc2C1 [Compound 76, 1-{2-[4-(2,4-difluorophenoxy)piperidin-1-yl]-3-(1-phenyl-1H-pyrazol-4-yl)-5H,6H,7H,8H-pyrido[3,4-b]pyrazin-6-yl}ethan-1-one]
IC50 [1, 5]: 1 to 30 µM
IC50 [2, 6]: 0.1 to 1 µM

CC(=O)N1CCc2nc(N3CCC(Oc4ccc(F)cc4F)CC3)c(-c3cccc(OC4CCOC4)n3)nc2C1 (stereo not drawn) [Compound 61, 1-{2-[4-(2,4-difluorophenoxy)piperidin-1-yl]-3-[6-(oxolan-3-yloxy)pyridin-2-yl]-5H,6H,7H,8H-pyrido[3,4-b]pyrazin-6-yl}ethan-1-one]
IC50 [1, 5]: 1 to 30 µM
IC50 [2, 6]: 1 to 30 µM

CC(=O)N1CCc2nc(N3CCC(Oc4ccc(F)cc4F)CC3)c(-c3cnn(C(F)F)c3)nc2C1 [Compound 15, 1-{3-[1-(difluoromethyl)-1H-pyrazol-4-yl]-2-[4-(2,4-difluorophenoxy)piperidin-1-yl]-5H,6H,7H,8H-pyrido[3,4-b]pyrazin-6-yl}ethan-1-one]
IC50 [1, 7]: 1 to 30 µM
IC50 [2, 7]: 0.1 to 1 µM

COc1cccc(-c2nc3c(nc2N2CCN(Cc4ccc(F)cc4Cl)CC2)CCN(C(C)=O)C3)n1 [Compound 205, 1-(2-{4-[(2-chloro-4-fluorophenyl)methyl]piperazin-1-yl}-3-(6-methoxypyridin-2-yl)-5H,6H,7H,8H-pyrido[3,4-b]pyrazin-6-yl)ethan-1-one]
IC50 [1, 5]: 1 to 30 µM
IC50 [2, 6]: 0.1 to 1 µM

CC(=O)N1CCc2nc(N3CCN(C(c4ccccc4)C(F)(F)F)CC3)c(-c3cnn(C)c3)nc2C1 (stereo not drawn) [Compound 730, 1-{3-(1-methyl-4-pyrazolyl)-2-[4-(2,2,2-trifluoro-1-phenylethyl)-1-piperazinyl]-5,6,7,8-tetrahydro-1,4,6-triaza-6-naphthyl}-1-ethanone]
IC50 ([1]; procedure of Example 24): 1 to 30 µM
IC50 ([2]; procedure of Example 24): 1 to 30 µM

Cn1cc(-c2nc3cnc(C(=O)C(C)(C)O)cc3nc2N2CCC(Oc3ccc(F)cc3F)CC2)cn1 [Compound 413, 1-(2-(4-(2,4-difluorophenoxy)piperidin-1-yl)-3-(1-methyl-1H-pyrazol-4-yl)pyrido[3,4-b]pyrazin-7-yl)-2-hydroxy-2-methylpropan-1-one]
IC50 [1, 5]: 1 to 30 µM
IC50 [2, 6]: 0.1 to 1 µM

COC[C@@](C)(O)c1cc2nc(N3CCC(Oc4ccc(F)cc4F)CC3)c(-c3cnn(C)c3)nc2cn1 (single isomer, unassigned) [Compound 615]
IC50 ([1]; procedure of Example 24): 1 to 30 µM
IC50 ([2]; procedure of Example 24): 0.1 to 1 µM

Cn1cc(-c2nc3c(Cl)nccc3nc2N2CCC(Oc3ccc(F)cc3F)CC2)cn1 [Compound 328, 1-[5-chloro-3-(1-methyl-1H-pyrazol-4-yl)pyrido[3,4-b]pyrazin-2-yl]-4-(2,4-difluorophenoxy)piperidine]
IC50 ([1]; procedure of Example 24): 1 to 30 µM
IC50 ([2]; procedure of Example 24): 0.1 to 1 µM

CC(=O)N1CCc2nc(N3CCC(=Cc4ccc(F)cc4)CC3)c(-c3cnn(C)c3)nc2C1 [Compound 560, 1-(2-{4-[(p-fluorophenyl)methylene]-1-piperidyl}-3-(1-methyl-4-pyrazolyl)-5,6,7,8-tetrahydro-1,4,6-triaza-6-naphthyl)-1-ethanone]
IC50 [1, 3]: 0.1 to 1 µM
IC50 [2, 4]: < 0.1 µM

CC(=O)N1CCc2nc(N3CCC(Oc4ccc(F)cc4F)CC3)c(-c3cncc(OC(F)F)n3)nc2C1 [Compound 239, 1-{3-[6-(difluoromethoxy)pyrazin-2-yl]-2-[4-(2,4-difluorophenoxy)piperidin-1-yl]-5H,6H,7H,8H-pyrido[3,4-b]pyrazin-6-yl}ethan-1-one]
IC50 [1, 5]: 1 to 30 µM
IC50 [2, 6]: 1 to 30 µM

COc1ccc(C(=O)N2CCN(c3nc4c(nc3-c3cnn(C)c3)CN(C(C)=O)CC4)CC2)c(OC)c1 [Compound 287, 1-{2-[4-(2,4-dimethoxybenzoyl)piperazin-1-yl]-3-(1-methyl-1H-pyrazol-4-yl)-5H,6H,7H,8H-pyrido[3,4-b]pyrazin-6-yl}ethan-1-one]
IC50 ([1]; procedure of Example 24): ≥ 30 µM
IC50 ([2]; procedure of Example 24): ≥ 30 µM

CC(C)S(=O)(=O)N1CCc2nc(N3CCC(Oc4ccc(F)cc4F)CC3)c(-c3cn[nH]c3)nc2C1 [Compound 150, 4-(2,4-difluorophenoxy)-1-[6-(propane-2-sulfonyl)-3-(1H-pyrazol-4-yl)-5H,6H,7H,8H-pyrido[3,4-b]pyrazin-2-yl]piperidine]
IC50 [1, 5]: 1 to 30 µM
IC50 [2, 6]: < 0.1 µM
